From BigSolDB 2.1

COc1ccc(C(=O)O)cc1
solubility (mole fraction)
Conditions | 273.15 K | 278.15 K | 283.15 K | 288.15 K | 293.15 K | 298.15 K | 303.15 K | 308.15 K | 313.15 K | 318.15 K
in acetonitrile | 0.00105 | 0.00122 | 0.00156 | 0.00194 | 0.00231 | 0.00281 | 0.00351 | 0.00419 | 0.00492 | 0.00603
in chloroform | 0.00116 | 0.00135 | 0.00173 | 0.0021 | 0.00251 | 0.00299 | 0.00383 | 0.0045 | 0.00538 | 0.00637
in ethanol | 0.00549 | 0.00653 | 0.00757 | 0.00887 | 0.0101 | 0.0118 | 0.0136 | 0.0163 | 0.0188 | 0.0221
in ethyl acetate | 0.0053 | 0.00601 | 0.00728 | 0.00853 | 0.00954 | 0.0112 | 0.0128 | 0.0142 | 0.0167 | 0.0207
in isopropanol | 0.00377 | 0.00489 | 0.00597 | 0.00722 | 0.00872 | 0.0105 | 0.0127 | 0.0152 | 0.0176 | 0.0211
in methanol | 0.00454 | 0.00526 | 0.00632 | 0.00752 | 0.00857 | 0.0102 | 0.0117 | 0.0138 | 0.0161 | 0.0193
in methyl acetate | 0.00527 | 0.00611 | 0.0073 | 0.00849 | 0.00968 | 0.0112 | 0.0131 | 0.0153 | 0.0176 | 0.0213
in n-propanol | 0.00455 | 0.00527 | 0.00631 | 0.00754 | 0.00895 | 0.0106 | 0.0127 | 0.0149 | 0.0174 | 0.0201
